According to US20150315202A1, “CHLORIN DERIVATIVE USEFUL IN PHOTODYNAMIC THERAPY AND DIAGNOSIS” (RMW CHO GROUP LIMITED, priority 2012, published 2015):

Tested on: advanced metastatic kidney disease with metastases in the gall bladder, liver and lung
Assay: In vivo studies Example 3: patient, oral chlorin e4 sodium plus laser and LED light
Design: species or system human
Method: A patient with advanced metastatic kidney disease with metastases in the gall bladder, liver and lung, was treated successfully. The treatment consisted of three courses. For each course, five doses of 62.5-187.5 mg chlorin e4 sodium were administered orally over the course of eight days. 24-48 hours after each oral dose of chlorin e4 sodium, the patient was treated with laser and LED light having a wavelength of 660 nm and 760 nm.
Subsequently the patient was treated with a further two courses. Again, for each course, five doses of 62.5-187.5 mg chlorin e4 sodium were administered orally over the course of eight days. 24-48 hours after each oral dose of chlorin e4 sodium, the patient was treated with laser and LED light having a wavelength of 660 nm and 760 nm. Additionally an interstitial light treatment using a fine needle was performed on the liver and lung with an optical fibre laser having a wavelength of 660 nm and 760 nm.

Q: How did the “Response (PET/CT)” value (after a further two courses with interstitial light on liver and lung) turn out when `C=Cc1c(C)c2cc3nc(c(C)c4[nH]c(cc5nc(cc1[nH]2)C(C)=C5CC)c(C)c4C(=O)O)[C@@H](CCC(=O)O)[C@@H]3C` [chlorin e4 sodium] was run?
A: good treatment response

Q: What about the Metastasis (after three courses) of the same compound?
A: No further metastasis was observed

Q: What about the “Tumours throughout the body (PET/CT)” value (before and two, three, five and 15 months after three courses) of the same compound?
A: some tumours disappeared altogether and the remaining tumours reduced in size

Q: What about the Side effects (five courses) of the same compound?
A: no side effects

Q: And the Survival time (life expectancy prior to treatment only six months)?
A: two years and four months
